The text below walks through data of US20090131406A1 (BAYER CROPSCIENCE AG, priority 2005, published 2009).

SMILES strings stand for the structures. Read-outs that look alike come from different tables or passages of the source.

Series [1] in a line: logP determination by HPLC on a reversed-phase column (C 18) at pH 2.7. In kind it is physicochemical. The following applies: for chromatographic logP: reversed-phase C18 HPLC column.
The subject of a further series is HeLa cells. Nature of the series: LIVE/DEAD cytotoxicity assay, inhibition of cell proliferation. It counts as cell-based, human. As to conditions: Homo sapiens; 48 hours of incubation, calcein-AM fluorescence, cell growth reduced by 50% compared to control; read-out: log GI50 values (M), HeLa cells (converted). The procedure:
(§1) The compounds of the general formula (I) according to the invention were tested for a possible cytotoxic or proliferation-inhibiting activity on the human tumour cell lines HeLa, SW620 and A375 (all from ATTC, American Type Culture Collection). To this end, the cells were plated in microtitre plates from Greiner (Manufacturer No. 781092) at a cell density of 1000 cells/microtitre plate well and cultivated in cell culture medium at 37° C. under a 5% carbon dioxide atmosphere. Cell culture media and additives were purchased from Invitrogen and the foetal calf serum from Biochrom. The cell culture media for Hela and A375 cells were used as stated by ATCC (HeLa: MEM, Order No. 10370-047, with 1% sodium bicarbonate, 1% non-essential amino acids, 1% sodium pyruvate, 10% foetal calf serum, 0.1% gentamycin; A375: DMEM, Order No. 41965-039, 2% sodium bicarbonate, 1% L-Glutamax, 10% foetal calf serum, 0.1% gentamycin). The culture medium for the SW620 cells consisted of DMEM, Order No. 41965-039, 1% non-essential amino acids, 10% foetal calf serum, 0.1% gentamycin.
24 hours after the cells had been plated in the microtitre plates, various concentrations of at most 100 μM down to a minimum concentration of 5 nM of the test compounds were added to the cells. […]
After a further 48 hours of incubation, the cells were washed with medium and analysed with the aid of a two-colour fluorescence cytotoxicity/viability test (LIVE/DEAD viability/cytotoxicity ASSAY kit from Molecular Probes, Order No. L-3224), according to the instructions of the manufacturer. […] The number of live cells was analysed by measuring the green fluorescence of the live dye calcein-AM as a component of the LIVE/DEAD reagent using a fluorescence plate reader (Flexstation, from Molecular Devices) at an excitation wavelength of 485 nm and an emission wavelength of 525 nm (cf. Oral, H. B. Endothelium 6, (1998), 143-151).
Cells only with cell culture medium, without added test compounds, were treated in parallel and analysed as growth controls. […]

The next series deals with SW620 cells. Described as above. The following applies: Homo sapiens, SW-620; 48 hours of incubation, calcein-AM fluorescence, cell growth reduced by 50% compared to control; read-out: log GI50 values (M), SW620 cells (converted). In kind it is cell-based, human. The procedure:
as §1
(§2) 24 hours after the cells had been plated in the microtitre plates, various concentrations of at most 100 μM down to a minimum concentration of 5 nM of the test compounds were added to the cells. Stock solutions of the test compounds (10 mM) were prepared in DMSO and stored at −20° C.; for the cytotoxicity tests, the test compounds were diluted in the appropriate cell culture medium.
(§3) After a further 48 hours of incubation, the cells were washed with medium and analysed with the aid of a two-colour fluorescence cytotoxicity/viability test (LIVE/DEAD viability/cytotoxicity ASSAY kit from Molecular Probes, Order No. L-3224), according to the instructions of the manufacturer. To this end, the medium was aspirated and in each case 30 μl of LIVE/DEAD reagent per microtitre plate well were added to the cells, which were then incubated for 30 minutes. The cells were then washed with PBS (phosphate-buffered saline). The number of live cells was analysed by measuring the green fluorescence of the live dye calcein-AM as a component of the LIVE/DEAD reagent using a fluorescence plate reader (Flexstation, from Molecular Devices) at an excitation wavelength of 485 nm and an emission wavelength of 525 nm (cf. Oral, H. B. Endothelium 6, (1998), 143-151).
(§4) Cells only with cell culture medium, without added test compounds, were treated in parallel and analysed as growth controls. The reference compounds used for anti-tumour agents having a cytotoxic or proliferation-inhibiting action were colchicine (from Merck/Calbiochem, Order No. 234115) and Taxol (baccatin III N-benzyl-b-phenylisoserine ester, from Merck/Calbiochem, Order No. 580555) (cf. Schiff, P. B. and Horwitz, S. B., Proceedings of the National Academy of Sciences of the U.S.A. 77, 1561-1565, 1980; Holmes, F. A. et al., Journal of the National Cancer Institute 83, 1797-1805, 1991).
(§5) The cytotoxic effects of the test compounds were expressed as logarithmic GI50 values (growth-inhibiting logarithmic concentration value at which a cell growth reduced by 50% compared to the control without test compounds was measured (cf. Xia et al., Journal of Medicinal Chemistry 44, 3932-3936, 2001; Smith, J. A. et al., Gynecologic Oncology 98, 141-145, 2005)).

The subject of the next series is A375 cells. Described as above. In kind it is cell-based, human. As to conditions: Homo sapiens, A-375; 48 hours of incubation, calcein-AM fluorescence, cell growth reduced by 50% compared to control; read-out: log GI50 values (M), A375 cells (converted). The procedure:
as §1, §2, §3, §4, §5

Setting [2] is: reversed-phase C 18, pH 2.7, Table 2, starting materials of formula (VI), read-out: Physical data: logP values.
[3] abbreviates: reversed-phase C 18, pH 2.7, preparation examples, read-out: logP (pH 2.7).
Where [4] appears, read: reversed-phase C 18, pH 2.7, Table 3, starting materials of formula (VII), read-out: logP (pH 2.7).
Setting [5] is: reversed-phase C 18, pH 2.7, preparation examples.

Consider `C=CCCN(Cc1ccc(C)cc1Br)C(=O)[C@H]1OC(C)(C)O[C@@H]1CC=C` [VI-1, (4S,5R)-5-Allyl-N-(2-bromo-4-methylbenzyl)-N-but-3-en-1-yl-2,2-dimethyl-1,3-dioxolane-4-carboxamide], for which the chromatographic logP in series [1] (setting [2]) came to 5.27.

Regarding `O=C1CCCC(=O)C2(O)CCN1Cc1cc3c(cc12)OCO3` (centres unmarked) [Example I-3, 12-Hydroxy-9,10,12-trihydro-5H-6,12-ethano[1,3]dioxolo[4,5-k][2]benzazecine-7,11(8H)-dione], the chromatographic logP in series [1] (setting [3]) turned out to be 0.99.

As for `CC1(C)O[C@@H]2C(=O)N3CCC(O)(C(=O)C[C@H]2O1)c1ccc(F)cc1C3` (stereo partly drawn) [Example I-2, (3aS,13aR)-8-Fluoro-11-hydroxy-2,2-dimethyl-6,11,13,13a-tetrahydro-4H-5,11-ethano[1,3]dioxolo[4,5-d][2]benzazecine-4,12(3aH)-dione], the chromatographic logP in series [1] (setting [3]) is 1.49.

For `CC1(C)O[C@@H]2C(=O)N3CCC(=CC[C@H]2O1)c1cc2c(cc1C3)OCO2` [Example Ia-6, (3aS,14aR)-2,2-Dimethyl-3a,6,14,14a-tetrahydro-4H-5,12-ethanobis[1,3]dioxolo[4,5-d:4′,5′-k][2]benzazecin-4-one], the chromatographic logP in series [1] (setting [3]) was determined as 2.19.

As to `CC(=O)O[C@H]1C(=O)[C@@]2(C)[C@H]([C@H](OC(=O)c3ccccc3)[C@]3(O)C[C@H](OC(=O)[C@H](O)[C@@H](NC(=O)c4ccccc4)c4ccccc4)C(C)=C1C3(C)C)[C@]1(OC(C)=O)CO[C@@H]1C[C@@H]2O` [Taxol], the GI50 in the series with HeLa cells was 1e-07 M; with SW620 cells, 1e-07 M; with A375 cells it was 1.26e-07 M.

As to `O=C1CCCC=CCCN1Cc1cc2c(cc1Br)OCO2` [VII-5, 1-[(6-Bromo-1,3-Benzodioxol-5-yl)Methyl]-1,3,4,5,8,9-Hexahydro-2H-azonin-2-one], in series [1] (setting [4]), the chromatographic logP amounted to 2.94.

For the molecule `O=C1CCCC=C2CCN1Cc1cc3c(cc12)OCO3` [Example Ia-5, 5,8,9,10-Tetrahydro-7H-6,12-ethano[1,3]dioxolo[4,5-k][2]benzazecin-7-one], the chromatographic logP in series [1] (setting [3]) is 2.01.

In the case of `CC1(C)O[C@@H]2C(=O)N3CCC(O)(C(=O)C[C@H]2O1)c1cc2c(cc1C3)OCO2` (stereo partly drawn) [Example I-4, (3aS,14aR)-12-hydroxy-2,2-dimethyl-6,12,14,14a-tetrahydro-4H-5,12-ethanobis[1,3]dioxolo[4,5-d:4′,5′-k][2]benzazecine-4,13(3aH)-dione], the chromatographic logP in series [1] (setting [3]) stood at 1.38.

With `CC1(C)O[C@@H]2C(=O)N3CCC(C(=O)C[C@H]2O1)c1ccc(F)cc1C3` (stereo partly drawn) [Example I-6, (3aS,13aR)-8-Fluoro-2,2-dimethyl-6,11,13,13a-tetrahydro-4H-5,11-ethano[1,3]dioxolo[4,5-d][2]benzazecine-4,12(3aH)-dione], the chromatographic logP in series [1] (setting [3]) worked out at 1.69.

Regarding `CC1(C)O[C@@H]2C(=O)N3CCC(=CC[C@H]2O1)c1ccc(F)cc1C3` [Example Ia-2, (3aS,13aR)-8-Fluoro-2,2-dimethyl-3a,6,13,13a-tetrahydro-4H-5,11-ethano[1,3]dioxolo[4,5-d][2]benzazecin-4-one], in series [1] (setting [3]), the chromatographic logP came out at 2.39.

Consider `COc1cc2c(cc1OC)C1=CCCCC(=O)N(CC1)C2` [Example Ia-4, 10,11-Dimethoxy-1,4,5,6-tetrahydro-3H-2,8-ethano-2-benzazecin-3-one], for which the chromatographic logP in series [1] (setting [3]) is 1.82.

For the molecule `O=C1C[C@@H](O)[C@H](O)C(=O)N2CCC1c1cc3c(cc1C2)OCO3` (some centres unmarked) [Example I-10], the chromatographic logP in series [1] (setting [3]) worked out at 0.89.

On to `COc1cc(Br)c(CN2CCC=CCCCC2=O)cc1OC` [VII-4, 1-(2-bromo-4,5-dimethoxybenzyl)-1,3,4,5,8,9-hexahydro-2H-azonin-2-one], for which the chromatographic logP in series [1] (setting [4]) stood at 2.78.

As for `Cc1ccc2c(c1)C1(O)CCN(C2)C(=O)[C@H]2OC(C)(C)O[C@@H]2CC1=O` (stereo partly drawn) [Example I-1, (3aS,13aR)-11-Hydroxy-2,2,9-trimethyl-6,11,13,13a-tetrahydro-4H-5,11-ethano[1,3]dioxolo[4,5-d][2]benzazecin-4,12(3aH)-one], in series [1] (setting [5]), the “logP (pH 2.7)” value is listed as 1.61.

`Cc1ccc(CN2CCC=CC[C@H]3OC(C)(C)O[C@@H]3C2=O)c(Br)c1` [VII-1, (3aS,10aR)-5-(2-Bromo-4-methylbenzyl)-2,2-dimethyl-3a,5,6,7,10,10a-hexahydro-4H-[1,3]dioxolo[4,5-c]azonin-4-one]: the chromatographic logP in series [1] (setting [4]) worked out at 3.41.

Take `CC1(C)O[C@@H]2C(=O)N3CCC(=CC[C@H]2O1)c1cnccc1C3` [Example Ia-3, (3aS,13aR)-2,2-Dimethyl-3a,6,13,13a-tetrahydro-4H-5,11-ethano[1,3]dioxolo[4,5-c]pyrido[3,4-h]azecin-4-one]: the chromatographic logP in series [1] (setting [3]) came out at 0.49.

Consider `Cc1ccc2c(c1)C1=CC[C@H]3OC(C)(C)O[C@@H]3C(=O)N(CC1)C2` [Example Ia-1, (3aS,13aR)-2,2,9-Trimethyl-3a,6,13,13a-tetrahydro-4H-5,11-ethano[1,3]dioxolo[4,5-d][2]benzazecin-4-one], for which the chromatographic logP in series [1] (setting [3]) is 2.62.

As to `Cc1ccc2c(c1)C1CCN(C2)C(=O)[C@@H](O)[C@H](O)CC1=O` (stereo partly drawn) [Example I-9, (4S,5R)-4,5-Dihydroxy-10-methyl-5,6,8-trihydro-1H-2,8-ethano-2-benzazecine-3,7(4H)-dione], the chromatographic logP in series [1] (setting [3]) worked out at 1.33.

Consider `C=CCCN(Cc1cc(F)ccc1Br)C(=O)[C@H]1OC(C)(C)O[C@@H]1CC=C` [VI-2, (4S,5R)-5-allyl-N-(2-bromo-5-fluorobenzyl)-N-but-3-en-1-yl-2,2-dimethyl-1,3-dioxolane-4-carboxamide], for which, in series [1] (setting [2]), the chromatographic logP is 4.83.

For `CC1(C)O[C@@H]2C(=O)N(Cc3cc(F)ccc3Br)CCC=CC[C@H]2O1` [VII-2, (3aS,10aR)-5-(2-bromo-5-fluorobenzyl)-2,2-dimethyl-3a,5,6,7,10,10a-hexahydro-4H-[1,3]dioxolo[4,5-c]azonin-4-one], the chromatographic logP in series [1] (setting [4]) amounted to 3.09.

For `O=C1CCCC(=O)N2CCC1c1cc3c(cc1C2)OCO3` (centres unmarked) [Example I-7, 9,10,12-Trihydro-5H-6,12-ethano[1,3]dioxolo[4,5-k][2]benzazecine-7,11(8H)-dione], the chromatographic logP in series [1] (setting [3]) turned out to be 1.3.

Consider `Cc1ccc2c(c1)C1CCN(C2)C(=O)[C@H]2OC(C)(C)O[C@@H]2CC1=O` (stereo partly drawn) [Example I-5, (3aS,13aR)-2,2,9-Trimethyl-6,11,13,13a-tetrahydro-4H-5,11-ethanol[1,3]dioxolo[4,5-d][2]benzazecine-4,12(3aH)-dione], for which, in series [1] (setting [5]), the “logP (pH 2.7)” value is 1.92.

On to `CC1(C)O[C@@H]2C(=O)N(Cc3ccncc3Br)CCC=CC[C@H]2O1` [VII-3, (3aS,10aR)-5-[(3-bromopyridin-4-yl)methyl]-2,2-dimethyl-3a,5,6,7,10,10a-hexahydro-4H-[1,3]dioxolo[4,5-c]azonin-4-one], for which the chromatographic logP in series [1] (setting [4]) amounted to 1.96.

For `CC1(C)O[C@@H]2C(=O)N3CCC(C(=O)C[C@H]2O1)c1cc2c(cc1C3)OCO2` (stereo partly drawn) [Example I-8, (3aS,14aR)-2,2-Dimethyl-6,12,14,14a-tetrahydro-4H-5,12-ethanobis[1,3]dioxolo[4,5-d:4′,5′-k][2]benzazecine-4,13(3aH)-dione], in series [1] (setting [3]), the chromatographic logP worked out at 1.6.

As a reminder, the GI50 is the concentration giving 50% growth inhibition.
